Results reported in patent US20210369677A1, “SMALL MOLECULE ACTIVATORS OF POLYCYSTIN-2 (PKD2) AND USES THEREOF” (Northwestern University, priority 2020, published 2021).

Biological target: T1, human polycystin-2 CTD EF hand (I704-P797) (Homo sapiens, UniProt Q13563)
T1 construct: The C-terminal fragment of the human polycystin-2 (I704-P797) was cloned into the PET19b vector; 10xHis (N); made in house; host or cells: E. coli BL21 (DE3)
T1 sequence (Q13563 704-797): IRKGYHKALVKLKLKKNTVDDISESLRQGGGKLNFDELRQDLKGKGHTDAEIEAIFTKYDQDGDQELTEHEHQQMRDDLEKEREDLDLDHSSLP
Test: Isothermal titration calorimetry of divalent ions into the CTD of polycystin-2
Assay type: binding
Settings: 25° C; read-out: Ca2+ affinity (Kd) for WT human CTD EF hand
Description: CTD protein expression, purification, and isothermal titration calorimetry. The C-terminal fragment of the human polycystin-2 (I704-P797) was cloned into the PET19b vector and transformed into BL21 (DE3) competent cells (New England Biolabs) for bacterial expression. The translated peptide has a 10×His tag on its N-terminus. The alanine mutants of the individual calcium-coordinating residues were created and transformed as well. Cells were grown in 2XYT broth in a 37° C. shaking incubator until OD600 reaches ˜0.6, and were induced by 0.4 mM isopropyl 1-thio-β-D-galactopyranoside and grown for another 4 hours. Cells were harvested and resuspended in Buffer A (500 mM NaCl, 20 mM Tris/HCl, pH 7.4), 5% glycerol, 0.25 mM EDTA pH 8.0, 1 mM PMSF (RPI), 25 μg/ml of lysozyme and DNase I (GoldBio). The suspension was then lysed by sonication and clarified by centrifugation (30,000×g for 0.5 h). Filtered supernatant was loaded into a HisPur cobalt Superflow agarose column (ThermoScientific). The column was washed with 10 column volume (CV) of buffer A, 5 CV of buffer A+5 mM imidazole, and finally eluted with 3 CV of buffer A+100 mM imidazole. The eluate was desalted by dialysis in 150 mM NaCl, 20 mM Tris/HCl, 20 mM imidazole, pH 7.4. SDS-PAGE gel confirmed the expression, solubility, and purity of the peptide. All of our solutions were formulated with ultrapure water (Milli-Q® IQ 7005 water purification system), that has less than 0.29 ng/L calcium ions present. The binding affinity is recorded based on the heat difference between the sample cell and reference cell measured by MicroCal iTC200. […] The cells were insulated by an adiabatic jacket held at 25° C. The heat of dilution of Ca^2+ was not subtracted from data sets, as the signal was prohibitively small for several of the mutant channels. The exothermic energy of the bimolecular interaction between Ca^2+ and peptide during each injection was analyzed by integrating the change in heat to generate the binding isotherm. […]

[Ca+2] [Ca^2+, calcium]
Kd: 19 ± 5 µM
